Data taken from patent publication US9884018B2, “Mesalamine suppository” (Aptalis Pharma Canada Inc., priority 2007, dated 2018).
Each block holds one compound with its values, some of them ahead of it.

Columns and labels:
Type in all cases: physicochemical
[1] = Tap density of mesalamine powder by USP tapped density test <616>; settings: for TD (measured tapped density): individual mesalamine lot used in combination, Table 10; for Tapped Density: mesalamine powder lot, Table 8; for Mesalamine Tap Density: mesalamine lot used for the molten mixture, Table 9
Protocol: Unless otherwise specified, tap density is measured by the USP tapped density test <616>.
The individual tap densities of each mesalamine lot were used to calculate a composite tapped density (CTD) based on the amount of each lot. The calculated CTD can be expressed by the following equation: (CDF)i+(CDF)2 + . . . (CDF)n=CTD where CTD=composite tapped density: CDF=contributed density factor=% of total drug used/100×TD; TD=measured tapped density; and n=number of drug lots used.

[2] = Viscosity of molten mixture of mesalamine and hard fat; settings: molten mixture prepared from the mesalamine lot, Table 11
[3] = as above; settings: in-process molten mixture of mesalamine and hard fat
Protocol: Molten mixtures were prepared by the procedure described in Example 1 using mesalamine lots A, B, and E, The molten mixtures had the viscosities reported in Table 9 below.
The in-process molten mixtures of mesalamine and hard fat used in the preparation of the suppositories described above with respect to FIGS. 4 to 6 had the viscosities reported in Table 12 below. Suppositories could not be made from Grades C and D from supplier 2.

Compound: Nc1ccc(O)c(C(=O)O)c1 [Mesalamine Lot No. 8, mesalamine]
Tap Density ([1]; mesalamine lot nos. 1-8, Table 11, listed as 8): 0.37 g/mL
Viscosity ([2]; listed as 8): 33735 cps

Compound: Nc1ccc(O)c(C(=O)O)c1 [Supplier 2, grade A, mesalamine]
Dispersion Viscosity ([3]; Drug Load 33% w/w): 595 Cps
Dispersion Viscosity ([3]; Drug Load 37% w/w): 1084 Cps
Dispersion Viscosity ([3]; Drug Load 42% w/w): 2553 Cps

Compound: Nc1ccc(O)c(C(=O)O)c1 [Mesalamine Lot F, mesalamine]
TD (measured tapped density) ([1]; listed as F): 0.46 g/mL
Tapped Density ([1]; listed as F): 0.46 g/mL

Compound: Nc1ccc(O)c(C(=O)O)c1 [Mesalamine Lot D, mesalamine]
TD (measured tapped density) ([1]; listed as D): 0.37 g/mL
Tapped Density ([1]; listed as D): 0.39 g/mL

Compound: Nc1ccc(O)c(C(=O)O)c1 [Mesalamine Lot No. 7, mesalamine]
Tap Density ([1]; mesalamine lot nos. 1-8, Table 11, listed as 7): 0.36 g/mL
Viscosity ([2]; listed as 7): 37830 cps

Compound: Nc1ccc(O)c(C(=O)O)c1 [Supplier 1, mesalamine]
Dispersion Viscosity ([3]; Drug Load 33% w/w): 694 Cps
Dispersion Viscosity ([3]; Drug Load 37% w/w): 1131 Cps
Dispersion Viscosity ([3]; Drug Load 42% w/w): 2512 Cps

Compound: Nc1ccc(O)c(C(=O)O)c1 [Supplier 2, grade C, mesalamine]
Tap Density ([1]; mesalamine by source, Table 12): 0.00058 g/mL
Dispersion Viscosity ([3]; Drug Load 33% w/w): Too Viscous

Compound: Nc1ccc(O)c(C(=O)O)c1 [Supplier 2, grade B, mesalamine]
Dispersion Viscosity ([3]; Drug Load 33% w/w): 515 Cps
Dispersion Viscosity ([3]; Drug Load 37% w/w): 845 Cps
Dispersion Viscosity ([3]; Drug Load 42% w/w): 1911 Cps

Compound: Nc1ccc(O)c(C(=O)O)c1 [Mesalamine Lot B, mesalamine]
Mesalamine Tap Density ([1]; listed as B): 0.72 g/mL
Tapped Density ([1]; listed as B): 0.72 g/mL

The next lines start with the values.

TD (measured tapped density) ([1]; listed as C): 0.68 g/mL
Tapped Density ([1]; listed as C): 0.68 g/mL
Compound: Nc1ccc(O)c(C(=O)O)c1 [Mesalamine Lot C, mesalamine]

Dispersion Viscosity ([3]; Drug Load 33% w/w): Poor
Compound: Nc1ccc(O)c(C(=O)O)c1 [Supplier 2, grade D, mesalamine]

TD (measured tapped density) ([1]; listed as G): 0.60 g/mL
Tapped Density ([1]; listed as G): 0.60 g/mL
Compound: Nc1ccc(O)c(C(=O)O)c1 [Mesalamine Lot G, mesalamine]

TD (measured tapped density) ([1]; listed as E): 0.68 g/mL
Mesalamine Tap Density ([1]; listed as E): 0.68 g/mL
Tapped Density ([1]; listed as E): 0.68 g/mL
Compound: Nc1ccc(O)c(C(=O)O)c1 [Mesalamine Lot E, mesalamine]

Mesalamine Tap Density ([1]; listed as A): 0.81 g/mL
Tapped Density ([1]; listed as A): 0.81 g/mL
Compound: Nc1ccc(O)c(C(=O)O)c1 [Mesalamine Lot A, mesalamine]
